In ChEMBL document CHEMBL3045954, “Synthesis and antidepressant activity of di substituted-5-aryl-1,2,4-triazoles” (Med Chem Res, 2012) one finds Time and Activity data, which are given here for 22 compounds.

In series [1] the test system is Mus musculus. The series is described as follows: Antidepressant activity in overnight fasted Mus musculus (mouse) assessed as decrease in immobility time at 100 mg/kg, ip administered 60 min prior to testing measured for 5 min by tail suspension test (reference value: 169.8 +/- 13 secs). Format: functional. The following applies: route intraperitoneal.
The subject of series [2] is Mus musculus. As to the kind of experiment: Antidepressant activity in overnight fasted Mus musculus (mouse) assessed as decrease in immobility time at 30 mg/kg, ip administered 60 min prior to testing measured for 5 min by tail suspension test (reference value: 169.8 +/- 13 secs). The conditions noted are these: route intraperitoneal. Format: functional.
Series [3] has as its system Mus musculus. As to the kind of experiment: Antidepressant activity in overnight fasted Mus musculus (mouse) assessed as decrease in immobility time at 10 mg/kg, ip administered 60 min prior to testing measured for 5 min by tail suspension test (reference value: 169.8 +/- 13 secs). It is filed as functional. The following applies: route intraperitoneal.
Series [4] is filed under the species Mus musculus. The series is described as follows: Behavioral effect in Mus musculus (mouse) assessed as effect on alertness after 3 hr. It is filed as functional, organism-based.
Series [5] has as its system Mus musculus. As to the kind of experiment: Acute toxicity in Mus musculus Swiss albino (mouse) up to 2000 mg/kg, ip measured for 1 month. Format: organism-based. Further details: dose 2000 mg/kg, route intraperitoneal. The following applies: in vivo, 730.5 h.

Molecules are shown by their SMILES. Calls of active or inactive are those of the source. No cut-off for these calls is given here.

With `c1ccc(-c2nc(SCCN(C3CCCCC3)C3CCCCC3)n[nH]2)cc1`, the Time in the series on Mus musculus [1] is reported as 101.7 s; with Mus musculus [2], 109.7 s; in the series with Mus musculus [3] it was 117 s. In addition, the result in the series listed under Mus musculus [4] was inactive. The Activity entry in the series with Mus musculus [5] is given as “Non-toxic”.
Consider `CN(C)CCSc1n[nH]c(-c2ccccc2O)n1`, for which the Time is on record as 150 s with Mus musculus [1], 150.8 s with Mus musculus [2] and 164.8 s in the series with Mus musculus [3]. For the same compound, the outcome in the series filed under Mus musculus [4] was inactive. In addition, the Activity entry in the series with Mus musculus [5] was “Non-toxic”.
`Oc1ccc(-c2nc(SCCN(C3CCCCC3)C3CCCCC3)n[nH]2)cc1`: the values for the Time in the series with Mus musculus [1], in the series on Mus musculus [2] and in the series on Mus musculus [3] were 112.7 s, 126.2 s and 157.5 s, respectively. Also, the result in the series filed under Mus musculus [4] was inactive. Also, the Activity entry in the series with Mus musculus [5] is recorded as “Non-toxic”.
Regarding `COc1ccc(-c2nc(SCCN(C)C)n[nH]2)cc1`, the figures for the Time in the series with Mus musculus [1], with Mus musculus [2] and in the series on Mus musculus [3] were 103.8 s, 111 s and 116.3 s, respectively. Further, the outcome in the series listed under Mus musculus [4] was inactive. In the series on Mus musculus [5], the Activity entry was “Non-toxic”.
On to `Clc1ccc(-c2nc(SCCN(C3CCCCC3)C3CCCCC3)n[nH]2)c(Cl)c1`, for which the figures for the Time in the series with Mus musculus [1], in the series on Mus musculus [2] and in the series on Mus musculus [3] were 90.5 s, 94.5 s and 96.5 s, respectively. Also, the result in the series filed under Mus musculus [4] was inactive. The Activity entry in the series with Mus musculus [5] was “Non-toxic”.
For the compound `CCN(CC)CCSc1n[nH]c(-c2ccc(OC)cc2)n1`, the Time in the series with Mus musculus [1] is reported as 103.8 s; in the series on Mus musculus [2] it was 118.5 s; with Mus musculus [3], 139 s. In the series listed under Mus musculus [4], the result was inactive. Besides, in the series with Mus musculus [5], the Activity entry was “Non-toxic”.
Take `CCN(CC)CCSc1n[nH]c(-c2ccc(C)cc2)n1`: the Time is reported as 151.2 s in the series on Mus musculus [1], 168.2 s in the series with Mus musculus [2] and 178.3 s in the series with Mus musculus [3]. Besides, the result in the series filed under Mus musculus [4] was inactive. The Activity entry in the series with Mus musculus [5] is given as “Non-toxic”.
The like results for `CCN(CC)CCSc1n[nH]c(-c2ccccc2)n1` were, in that order, 108.3 s, 120.7 s, 145.8 s, “inactive” and “Non-toxic”.
As for `Cc1ccc(-c2nc(SCCN(C3CCCCC3)C3CCCCC3)n[nH]2)cc1`, the figures for the Time in the series on Mus musculus [1], in the series with Mus musculus [2] and with Mus musculus [3] were 150 s, 151.3 s and 165 s, respectively. The outcome in the series filed under Mus musculus [4] was inactive. Further, in the series with Mus musculus [5], the Activity entry is reported as “Non-toxic”.
On the same counts, the results for `CN(C)CCSc1n[nH]c(-c2ccc(Cl)cc2)n1` are 96 s, 102.2 s, 109.2 s, “inactive” and “Non-toxic”.
On to `CN(C)CCSc1n[nH]c(-c2ccccc2)n1`, for which the values for the Time with Mus musculus [1], with Mus musculus [2] and in the series with Mus musculus [3] were 102 s, 110.3 s and 117.2 s, respectively. In addition, the result in the series filed under Mus musculus [4] was inactive. In addition, the Activity entry in the series on Mus musculus [5] is listed as “Non-toxic”.
For `CCN(CC)CCSc1n[nH]c(-c2ccccc2O)n1`, the Time in the series with Mus musculus [1] turned out to be 137.3 s; in the series on Mus musculus [2] it was 163.5 s; in the series on Mus musculus [3] it was 173.8 s. Further, the outcome in the series filed under Mus musculus [4] was inactive. The Activity entry with Mus musculus [5] is “Non-toxic”.
As for `CN(C)CCSc1n[nH]c(-c2ccc(Cl)cc2Cl)n1`, the results for the Time in the series on Mus musculus [1], in the series on Mus musculus [2] and with Mus musculus [3] were 96.2 s, 101.8 s and 109 s, respectively. Further, in the series listed under Mus musculus [4], the result was inactive. Besides, the Activity entry in the series on Mus musculus [5] was “Non-toxic”.
In the case of `CCN(CC)CCSc1n[nH]c(-c2ccc(Cl)cc2Cl)n1`, the Time amounted to 103.2 s in the series on Mus musculus [1], 110 s with Mus musculus [2] and 121.8 s in the series with Mus musculus [3]. For the same compound, in the series filed under Mus musculus [4], the outcome was inactive. The Activity entry in the series with Mus musculus [5] is “Non-toxic”.
The like results for `Oc1ccccc1-c1nc(SCCN(C2CCCCC2)C2CCCCC2)n[nH]1` were, in that order, 150 s, 149.3 s, 162.5 s, “inactive” and “Non-toxic”.
Take `CCN(CC)CCSc1n[nH]c(-c2ccc(Cl)cc2)n1`: the Time in the series with Mus musculus [1] turned out to be 103.8 s; in the series on Mus musculus [2], 115 s; in the series on Mus musculus [3] it was 129.7 s. In addition, the outcome in the series filed under Mus musculus [4] was inactive. The Activity entry in the series with Mus musculus [5] is reported as “Non-toxic”.
As to `CN(C)CCSc1n[nH]c(-c2ccc(O)cc2)n1`, the Time with Mus musculus [1] is on record as 149 s; with Mus musculus [2] it was 150.3 s; in the series on Mus musculus [3], 161.2 s. Also, the outcome in the series filed under Mus musculus [4] was inactive. For the same compound, the Activity result in the series with Mus musculus [5] is on record as “Non-toxic”.
For `CN(C)CCCN1c2ccccc2CCc2ccccc21` [IMIPRAMINE], the Time with Mus musculus [3] came to 95.8 s.
For `Clc1ccc(-c2nc(SCCN(C3CCCCC3)C3CCCCC3)n[nH]2)cc1`, the Time in the series on Mus musculus [1] stood at 89.2 s; in the series on Mus musculus [2], 94.8 s; in the series on Mus musculus [3], 96.8 s. Also, in the series listed under Mus musculus [4], the outcome was inactive. Besides, the Activity result in the series on Mus musculus [5] was “Non-toxic”.
Take `Cc1ccc(-c2nc(SCCN(C)C)n[nH]2)cc1`: the figures for the Time in the series on Mus musculus [1], in the series on Mus musculus [2] and with Mus musculus [3] were 152.8 s, 168.2 s and 172.8 s, respectively. In addition, in the series filed under Mus musculus [4], the result was inactive. The Activity entry in the series with Mus musculus [5] was “Non-toxic”.
Regarding `CCN(CC)CCSc1n[nH]c(-c2ccc(O)cc2)n1`, the Time in the series on Mus musculus [1] was 151.8 s; in the series with Mus musculus [2], 167.3 s; with Mus musculus [3] it was 171.8 s. The outcome in the series listed under Mus musculus [4] was inactive. For the same compound, in the series on Mus musculus [5], the Activity entry is on record as “Non-toxic”.
As for `COc1ccc(-c2nc(SCCN(C3CCCCC3)C3CCCCC3)n[nH]2)cc1`, the results for the Time with Mus musculus [1], in the series with Mus musculus [2] and in the series on Mus musculus [3] were 94.8 s, 96.3 s and 101.3 s, respectively. Further, the result in the series listed under Mus musculus [4] was inactive. The Activity entry in the series on Mus musculus [5] is reported as “Non-toxic”.
